Test results taken from patent publication EP0851766B1, “METHOD FOR ANALYZING THE IMMUNOS[…] OF ION CHANNEL BLOCKERS USING THE MINI-PIG” (MERCK & CO., INC., priority 1995, dated 1997).
Read-outs that look alike come from different tables or passages of the source.

What was measured:
[1] = system: mixed lymphocyte reaction; conditions: guinea pig; cited from earlier work
[2] = system: mixed lymphocyte reaction; conditions: rabbit; cited from earlier work
[3] = system: mixed lymphocyte reaction; experiment: Mixed lymphocyte reaction (pig); type: cell-based
From the text: Mini-swine was recently selected to validate the concept that blocking the voltage activated K+ channels (Kv1.3) is a target for immunomodulation.

[4] = 25 µg infused over 2.5 h
pig mononuclear cells = experiment: In vitro PMA/ionomycin induced proliferation of mononuclear cells ([3H]thymidine incorporation); type: cell-based
[5] = Blood pressure and heart rate during infusion; type: in vivo, Yucatan mini-pig; conditions: during infusion of 25 µg over 2.5 h
Procedure: A Yucatan mini-pig received 25 µg of margatoxin in 30 ml of vehicle (5% autologous serum in 1:1 saline to PBS solution) over 2.5 h. […] Margatoxin was undetectable in the plasma in 24 h. Plasma level of MgTX was determined in a competition binding assay, by its inhibition of ^125I-labeled MgTX binding to Kv1.3 channels present in isolated plasma membranes. […] Similar pharmokinetic study was performed six times, with good correlations between high plasma levels of margatoxin and the lower response to PMA/ION. Yucatan mini-pigs receiving vehicle had no significant fluctuation of responses to PMA/ION. Therefore, this ex vivo test provides an assessment of the in vivo biological effect of margatoxin and can also be used to study the immunosuppressant effects of other ion channel blockers.

mononuclear cells = experiment: Ex vivo PMA/ionomycin-induced proliferation of mononuclear cells after in vivo infusion; parameters: species or system Yucatan mini-pig; conditions: 25 µg in 30 ml of vehicle infused over 2.5 h
[6] = system: mixed lymphocyte reaction; conditions: rat; cited from earlier work
[7] = target: T1, Kv1.3 channels of the pig T cells (Sus scrofa, UniProt A0A5G2QN06); conditions: electrophysiological analyses, unpublished communication from Reid Leonard; cited from earlier work
T1 construct: endogenous in cells; host or cells: pig T cells
T1 sequence (A0A5G2QN06 1-588): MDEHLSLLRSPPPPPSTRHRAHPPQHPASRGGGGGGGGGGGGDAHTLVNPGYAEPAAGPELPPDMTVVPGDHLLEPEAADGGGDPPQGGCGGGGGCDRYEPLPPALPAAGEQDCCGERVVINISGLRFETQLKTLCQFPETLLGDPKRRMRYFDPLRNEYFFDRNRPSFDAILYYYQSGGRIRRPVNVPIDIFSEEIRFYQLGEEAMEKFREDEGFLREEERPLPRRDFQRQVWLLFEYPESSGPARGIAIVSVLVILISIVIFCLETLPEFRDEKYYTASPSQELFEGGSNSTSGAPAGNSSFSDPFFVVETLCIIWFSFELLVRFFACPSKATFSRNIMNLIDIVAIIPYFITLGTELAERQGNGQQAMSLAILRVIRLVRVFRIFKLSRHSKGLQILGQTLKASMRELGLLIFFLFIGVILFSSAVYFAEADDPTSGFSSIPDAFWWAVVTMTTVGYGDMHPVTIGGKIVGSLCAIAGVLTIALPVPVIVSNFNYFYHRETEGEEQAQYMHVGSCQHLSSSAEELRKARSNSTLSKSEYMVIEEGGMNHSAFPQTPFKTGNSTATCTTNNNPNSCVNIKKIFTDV

[8] = system: mixed lymphocyte reaction; conditions: mouse; cited from earlier work

Margatoxin
inhibition of the mixed lymphocyte reaction [1]: not inhibited | inhibition of the mixed lymphocyte reaction [2]: not inhibited | inhibition of the mixed lymphocyte reaction [3]: inhibit | Plasma level ([4]; in 24 h): undetectable | half-life ([4]; plasma): about 2 h | Cmax ([4]; read-out: Plasma level, peak, at the end of infusion): 0.6 nM | concentration ([4]; read-out: Plasma level, at 4.5 h post-infusion): 0.1 nM | PMA/ionomycin (ION) induced proliferation (pig mononuclear cells; pig mononuclear cells, in vitro): equally inhibited | suppression of the proliferative response to PMA/ION (pig mononuclear cells; whole blood spiked with Margatoxin): significant suppression | rise in blood pressure [5]: no significant rise | rise in heart rate [5]: no significant rise | Unresponsiveness to PMA/ION, duration sustained post-infusion (mononuclear cells): 4.5 h | Unresponsiveness to PMA/ION, time of maximum (mononuclear cells): maximal at the end of infusion | inhibition of the mixed lymphocyte reaction [6]: not inhibited | block of the Kv1.3 channels [7]: block | inhibition of the mixed lymphocyte reaction [8]: not inhibited
